# Patent publication US20260062394A1, “PROCESSES FOR PREPARING OXAZOLIDINONE COMPOUNDS” (Merck Sharp & Dohme LLC, priority 2022, published 2026)
# Experiment: relative stability and turnover of the crystalline forms
# Format: physicochemical
# Settings: for thermodynamic stability of the crystalline form: solid form, Form II statement applies to the 5-70° C. range
# Source text: Alternatively, Form I can also be produced by solvent/anti solvent crystallizations where the solvent is (but limited not) DMSO or acetone and the antisolvent is (but not limited to) water, hexanes or heptanes. Form I can also be produced by slow evaporation of clear solutions of crude Example 1 in volatile solvents where the volatile solvent is (but not limited to) dichloromethane, acetone, or acetonitrile. Form I was characterized using PXRD, DSC, TGA and SCXRD.
# Form II can be produced by recrystallization of Form I in a variety of organic solvents or mixtures thereof where the solvent(s) is (are) (but not limited to) ethyl acetate, isopropanol, acetone, dichloromethane, acetonitrile, tetrahydrofuran, water, ethanol, 2-methyl tetrahydrofuran, toluene, methanol, dimethyl formamide or cyclopentyl methyl ether. Form II was characterized using PXRD, DSC and TGA.
# Type C can be produced by recrystallization of either Form I, Form II or Form III in solvent/antisolvent systems where the solvent is (but not limited to) acetone or dichloromethane and the antisolvent is (but not limited to) n-hexane or n-heptane.
# Form III was produced by recrystallization of Type C in the solid state at 150° C. and under a N2 flow. Form III can also be formed in some instances from solution in acetone/n-heptane crystallizations. […] Form III was characterized using PXRD, DSC, TGA and SCXRD.
Structure (SMILES),thermodynamic stability of the crystalline form,lifetime in solution before turnover into a more thermodynamically stable phase (in solution)
"COC(=O)NC[C@H]1CN(c2cc(F)c(N3CCS(=O)(=O)CC3)c(F)c2)C(=O)O1 [Form I, methyl({(5S)-3-[4-(1,1-dioxo-1λ^6-thiomorpholin-4-yl)-3,5-difluorophenyl]-2-oxo-1,3-oxazolidin-5-yl}methyl)carbamate]",kinetic phase and will recrystallize into Form II with time,–
"COC(=O)NC[C@H]1CN(c2cc(F)c(N3CCS(=O)(=O)CC3)c(F)c2)C(=O)O1 [Form II, methyl ({(5S)-3-[4-(1,1-dioxo-1λ^6-thiomorpholin-4-yl)-3,5-difluorophenyl]-2-oxo-1,3-oxazolidin-5-yl}methyl)carbamate]",most thermodynamically stable form in the 5-70 °C range,–
"COC(=O)NC[C@H]1CN(c2cc(F)c(N3CCS(=O)(=O)CC3)c(F)c2)C(=O)O1 [Form III, methyl ({(5S)-3-[4-(1,1-dioxo-1λ^6-thiomorpholin-4-yl)-3,5-difluorophenyl]-2-oxo-1,3-oxazolidin-5-yl}methyl)carbamate]",Quick turnovers to more thermodynamically stable phases Form I or Form II are readily observed within minutes to hours,–
"COC(=O)NC[C@H]1CN(c2cc(F)c(N3CCS(=O)(=O)CC3)c(F)c2)C(=O)O1 [Type C, methyl ({(5S)-3-[4-(1,1-dioxo-1λ^6-thiomorpholin-4-yl)-3,5-difluorophenyl]-2-oxo-1,3-oxazolidin-5-yl}methyl)carbamate]",highly metastable,a few hours
